Experimental data taken from patent US20250312462A1, “PAK1 DEGRADERS AND METHODS OF USE THEREOF” (INSTITUTE FOR CANCER RESEARCH D/B/A THE RESEARCH INSTITUTE …, priority 2022, published 2025).
pEC50, pIC50: −log10 of the molar value. Where two headings read alike, the source gives them in different places.

What was measured:
[1] = target: JAK1(JH1domain-catalytic) (Homo sapiens, UniProt P23458); assay: KINOMEscan; details: read-out: Percent Control
Protocol: (§4) The kinase engagement assay (KINOMEscan®) was performed by DiscoverX assessing binding abilities toward a set of kinases.

MELK = MELK (Homo sapiens, UniProt Q14680); assay: KINOMEscan; details: read-out: Percent Control
Protocol: as §4

STK35 = STK35 (Homo sapiens, UniProt Q8TDR2); assay: KINOMEscan; details: read-out: Percent Control
Protocol: as §4

AAK1 = AAK1 (Homo sapiens, UniProt Q2M2I8); assay: KINOMEscan; details: read-out: Percent Control
Protocol: as §4

ULK3 = ULK3 (Homo sapiens, UniProt Q6PHR2); assay: KINOMEscan; details: read-out: Percent Control
Protocol: as §4

S6K1 = S6K1 (Homo sapiens, UniProt P23443); assay: KINOMEscan; details: read-out: Percent Control
Sequence of S6K1 (P23443 whole entry): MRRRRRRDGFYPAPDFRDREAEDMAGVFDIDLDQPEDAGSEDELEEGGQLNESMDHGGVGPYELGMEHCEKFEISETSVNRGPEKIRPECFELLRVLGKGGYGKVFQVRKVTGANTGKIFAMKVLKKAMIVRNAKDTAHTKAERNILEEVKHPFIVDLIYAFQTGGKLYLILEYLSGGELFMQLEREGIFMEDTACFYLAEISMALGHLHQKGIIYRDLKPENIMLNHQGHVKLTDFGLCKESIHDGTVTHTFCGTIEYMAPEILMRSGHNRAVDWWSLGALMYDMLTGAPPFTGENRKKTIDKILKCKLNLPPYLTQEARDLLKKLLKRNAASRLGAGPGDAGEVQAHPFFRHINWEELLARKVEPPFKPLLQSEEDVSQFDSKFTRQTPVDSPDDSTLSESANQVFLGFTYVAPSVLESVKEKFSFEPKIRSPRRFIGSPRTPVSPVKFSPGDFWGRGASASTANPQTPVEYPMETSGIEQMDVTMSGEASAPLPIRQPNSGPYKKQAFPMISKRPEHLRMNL
Protocol: as §4

MCF7 cells = assay: Cell proliferation, MTT assay; assay type: cell-based; details: Homo sapiens, MCF7, MCF7 cells, read-out: EC50, anti-proliferative
Protocol: (§1) Cell proliferation was assessed by MTT assay.
(§2) Cell viability was measured by MTT assay and the half maximal inhibitory concentration (IC50) was calculated using GraphPad Prism. Triplicates were performed for each sample and medium alone was used as a blank.
(§3) The anti-proliferative effects of PAK1 degradation and inhibition were evaluated.

OMM1 cells = assay: Cell proliferation, MTT assay; assay type: cell-based; details: OMM1 cells (PAK2-dependent)
Protocol: as §1, §2, §3

Hey A8 cells = assay: Cell proliferation, MTT assay; assay type: cell-based
Protocol: as §1, §2, §3

WNK2 = WNK2 (Homo sapiens, UniProt Q9Y3S1); assay: KINOMEscan; details: read-out: Percent Control
Protocol: as §4

MYLK2 = MYLK2 (Homo sapiens, UniProt Q9H1R3); assay: KINOMEscan; details: read-out: Percent Control
Protocol: as §4

CSNK1G2 = CSNK1G2 (Homo sapiens, UniProt P78368); assay: KINOMEscan; details: read-out: Percent Control
Sequence of CSNK1G2 (P78368 whole entry): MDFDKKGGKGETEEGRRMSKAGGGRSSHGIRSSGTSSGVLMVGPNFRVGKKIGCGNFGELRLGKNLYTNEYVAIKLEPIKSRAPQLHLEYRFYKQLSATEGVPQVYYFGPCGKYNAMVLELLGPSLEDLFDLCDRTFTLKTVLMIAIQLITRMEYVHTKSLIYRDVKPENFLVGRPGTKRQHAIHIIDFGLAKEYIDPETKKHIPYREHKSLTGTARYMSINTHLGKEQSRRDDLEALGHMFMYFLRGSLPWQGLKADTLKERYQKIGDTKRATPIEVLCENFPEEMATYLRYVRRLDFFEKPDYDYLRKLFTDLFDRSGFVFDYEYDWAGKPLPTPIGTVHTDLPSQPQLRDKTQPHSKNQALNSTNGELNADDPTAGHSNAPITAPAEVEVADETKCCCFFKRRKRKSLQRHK
Protocol: as §4

PRP4 = target: T1, PRP4 (Homo sapiens, UniProt Q13523); assay: KINOMEscan; assay type: binding; details: read-out: Percent Control
T1 construct: purchased DiscoverX

PFTK1 = PFTK1 (Homo sapiens, UniProt O94921); assay: KINOMEscan; details: read-out: Percent Control
Protocol: as §4

[2] = target: JAK1(JH2domain-pseudokinase) (Homo sapiens, UniProt P23458); assay: KINOMEscan; details: read-out: Percent Control
Protocol: as §4

TXK = TXK (Homo sapiens, UniProt P42681); assay: KINOMEscan; details: read-out: Percent Control
Protocol: as §4

CHEK2 = CHEK2 (Homo sapiens, UniProt O96017); assay: KINOMEscan; details: read-out: Percent Control
Sequence of CHEK2 (O96017 whole entry): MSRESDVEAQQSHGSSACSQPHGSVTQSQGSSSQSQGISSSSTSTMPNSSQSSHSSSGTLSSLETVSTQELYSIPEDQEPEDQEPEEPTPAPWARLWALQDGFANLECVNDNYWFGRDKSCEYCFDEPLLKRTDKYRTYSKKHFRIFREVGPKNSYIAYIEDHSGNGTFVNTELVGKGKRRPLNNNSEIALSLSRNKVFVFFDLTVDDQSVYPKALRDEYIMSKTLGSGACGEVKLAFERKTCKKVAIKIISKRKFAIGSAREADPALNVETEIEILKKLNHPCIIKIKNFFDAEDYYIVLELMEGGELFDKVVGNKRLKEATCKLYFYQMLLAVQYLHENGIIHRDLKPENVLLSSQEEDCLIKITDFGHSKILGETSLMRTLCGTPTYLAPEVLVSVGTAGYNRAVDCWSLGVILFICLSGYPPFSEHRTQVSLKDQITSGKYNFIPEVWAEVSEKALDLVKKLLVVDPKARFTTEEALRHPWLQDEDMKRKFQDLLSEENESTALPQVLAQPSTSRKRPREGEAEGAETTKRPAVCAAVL
Protocol: as §4

OVCAR3 cells = assay: Cell proliferation, MTT assay; assay type: cell-based; details: Homo sapiens, OVCAR-3, OVCAR3 cells, read-out: EC50, anti-proliferative
Protocol: […]. Cell proliferation was assessed by MTT assay. […].
Cells were plated at 2×10^3 cells per well in 96-well plates overnight and treated with various concentrations of Pak degraders for 72 hours. Cell viability was measured by MTT assay and the half maximal inhibitory concentration (IC50) was calculated using GraphPad Prism. Triplicates were performed for each sample and medium alone was used as a blank.
The anti-proliferative effects of PAK1 degradation and inhibition were evaluated. […]. […] […]. […] […].

GAK = GAK (Homo sapiens, UniProt O14976); assay: KINOMEscan; details: read-out: Percent Control
Protocol: as §4

FGR = FGR (Homo sapiens, UniProt P09769); assay: KINOMEscan; details: read-out: Percent Control
Protocol: as §4

KIT(L576P) = KIT(L576P) (Homo sapiens, UniProt P10721, L576P); assay: KINOMEscan; details: read-out: Percent Control
Sequence of KIT(L576P) (P10721 26-976 L576P): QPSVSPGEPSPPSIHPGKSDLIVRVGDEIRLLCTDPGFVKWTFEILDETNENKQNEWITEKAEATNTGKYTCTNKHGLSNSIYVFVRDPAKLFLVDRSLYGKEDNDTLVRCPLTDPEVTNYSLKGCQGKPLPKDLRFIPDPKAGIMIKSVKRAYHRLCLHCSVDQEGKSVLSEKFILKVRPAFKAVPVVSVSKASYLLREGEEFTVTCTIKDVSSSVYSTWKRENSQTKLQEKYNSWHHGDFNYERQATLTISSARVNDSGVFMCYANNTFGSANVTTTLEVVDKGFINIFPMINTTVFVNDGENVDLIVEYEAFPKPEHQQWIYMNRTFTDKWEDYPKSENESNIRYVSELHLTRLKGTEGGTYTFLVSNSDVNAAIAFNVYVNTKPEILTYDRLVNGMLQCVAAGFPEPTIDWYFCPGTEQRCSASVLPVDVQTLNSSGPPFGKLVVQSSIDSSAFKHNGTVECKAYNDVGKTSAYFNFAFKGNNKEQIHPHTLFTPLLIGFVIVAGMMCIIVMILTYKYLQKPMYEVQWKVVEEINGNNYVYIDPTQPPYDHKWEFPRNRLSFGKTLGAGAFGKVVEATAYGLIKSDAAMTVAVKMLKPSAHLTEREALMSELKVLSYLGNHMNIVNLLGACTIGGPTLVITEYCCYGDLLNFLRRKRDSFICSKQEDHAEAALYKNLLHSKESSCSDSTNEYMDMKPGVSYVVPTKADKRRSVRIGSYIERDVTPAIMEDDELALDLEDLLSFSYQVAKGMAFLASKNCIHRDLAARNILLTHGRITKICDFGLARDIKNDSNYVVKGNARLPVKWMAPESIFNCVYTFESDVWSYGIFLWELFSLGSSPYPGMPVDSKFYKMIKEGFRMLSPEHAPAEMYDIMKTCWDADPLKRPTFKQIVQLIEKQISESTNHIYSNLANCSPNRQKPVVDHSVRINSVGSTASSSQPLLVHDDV
Protocol: as §4

LZK = LZK (Homo sapiens, UniProt O43283); assay: KINOMEscan; details: read-out: Percent Control
Sequence of LZK (O43283 whole entry): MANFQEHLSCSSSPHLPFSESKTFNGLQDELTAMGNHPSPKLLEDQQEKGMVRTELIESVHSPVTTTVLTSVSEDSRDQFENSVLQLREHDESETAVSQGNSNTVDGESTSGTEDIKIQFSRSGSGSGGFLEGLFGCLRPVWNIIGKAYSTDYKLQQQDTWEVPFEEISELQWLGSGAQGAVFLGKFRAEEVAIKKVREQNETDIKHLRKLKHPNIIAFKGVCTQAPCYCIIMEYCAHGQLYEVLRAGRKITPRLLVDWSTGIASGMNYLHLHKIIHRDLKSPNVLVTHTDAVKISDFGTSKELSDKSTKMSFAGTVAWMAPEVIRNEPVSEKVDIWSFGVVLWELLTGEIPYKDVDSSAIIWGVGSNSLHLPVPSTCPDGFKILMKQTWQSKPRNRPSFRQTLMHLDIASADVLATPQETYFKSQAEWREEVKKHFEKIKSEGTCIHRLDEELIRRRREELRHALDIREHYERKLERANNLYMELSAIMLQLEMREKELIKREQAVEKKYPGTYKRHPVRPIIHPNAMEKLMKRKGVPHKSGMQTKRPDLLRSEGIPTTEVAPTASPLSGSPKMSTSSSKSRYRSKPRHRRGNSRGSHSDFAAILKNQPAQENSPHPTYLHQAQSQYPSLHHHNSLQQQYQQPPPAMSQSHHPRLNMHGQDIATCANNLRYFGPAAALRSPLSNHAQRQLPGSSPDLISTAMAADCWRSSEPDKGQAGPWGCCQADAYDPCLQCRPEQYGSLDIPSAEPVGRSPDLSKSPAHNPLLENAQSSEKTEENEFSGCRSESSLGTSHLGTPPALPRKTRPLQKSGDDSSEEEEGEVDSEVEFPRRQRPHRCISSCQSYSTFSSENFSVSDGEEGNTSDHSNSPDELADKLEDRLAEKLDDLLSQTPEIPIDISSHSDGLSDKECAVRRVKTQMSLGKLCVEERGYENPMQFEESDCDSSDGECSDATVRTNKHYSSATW
Protocol: as §4

CLK1 = CLK1 (Homo sapiens, UniProt P49759); assay: KINOMEscan; details: read-out: Percent Control
Protocol: as §4

PAK6 = PAK6 (Homo sapiens, UniProt Q9NQU5); assay: KINOMEscan; details: read-out: Percent Control
Sequence of PAK6 (Q9NQU5 whole entry, the tested form may be a part): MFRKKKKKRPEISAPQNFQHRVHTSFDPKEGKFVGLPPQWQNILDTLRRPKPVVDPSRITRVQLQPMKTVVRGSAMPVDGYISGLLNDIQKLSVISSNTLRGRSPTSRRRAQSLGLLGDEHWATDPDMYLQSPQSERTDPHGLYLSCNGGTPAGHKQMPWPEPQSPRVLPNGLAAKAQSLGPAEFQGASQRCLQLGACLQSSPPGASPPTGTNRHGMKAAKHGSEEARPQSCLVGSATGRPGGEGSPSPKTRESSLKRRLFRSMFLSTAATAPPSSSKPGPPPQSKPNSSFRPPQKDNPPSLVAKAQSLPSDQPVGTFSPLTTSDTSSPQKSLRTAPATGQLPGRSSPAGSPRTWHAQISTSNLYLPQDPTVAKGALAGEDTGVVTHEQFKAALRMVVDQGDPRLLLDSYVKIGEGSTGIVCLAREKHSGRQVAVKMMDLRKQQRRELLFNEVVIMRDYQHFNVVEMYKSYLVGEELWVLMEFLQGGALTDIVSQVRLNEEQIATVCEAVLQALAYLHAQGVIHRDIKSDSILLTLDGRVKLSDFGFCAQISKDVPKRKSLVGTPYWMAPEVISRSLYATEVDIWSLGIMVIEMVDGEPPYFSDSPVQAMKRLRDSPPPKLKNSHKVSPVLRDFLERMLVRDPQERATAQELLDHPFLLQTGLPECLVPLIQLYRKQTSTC
Protocol: as §4

PAK1 = PAK1 (Homo sapiens, UniProt Q13153); assay: Z'-LYTE FRET kinase inhibition assay; assay type: biochemical; design: human recombinant PAK1 (kinase domain); purchased Invitrogen PV2830
Sequence of PAK1 (Q13153 270-521 limits assumed): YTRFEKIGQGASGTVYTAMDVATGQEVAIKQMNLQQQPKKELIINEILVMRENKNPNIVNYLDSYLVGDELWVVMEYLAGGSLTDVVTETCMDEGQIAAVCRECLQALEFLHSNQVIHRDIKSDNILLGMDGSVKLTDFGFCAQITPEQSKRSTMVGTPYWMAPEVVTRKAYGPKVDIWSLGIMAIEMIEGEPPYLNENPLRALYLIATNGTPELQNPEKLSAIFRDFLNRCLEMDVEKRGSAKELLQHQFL
Protocol: The activity/inhibition of human recombinant PAK1 (kinase domain) or PAK2 (full length) was determined by measuring the phosphorylation of a FRET peptide substrate (Ser/Thr19) labeled with Coumarin and Fluorescein using Z′-LYTE™ assay (Invitrogen). The 10 μL assay mixtures contained 50 mM HEPES (pH 7.5), 0.01% Brij-35, 10 mM MgCl2, 1 mM EGTA, 2 μM FRET peptide substrate, and PAK enzyme (20 pM PAK1; 50 pM PAK2). Incubations were carried out at 22° C. in black polypropylene 384-well plates (Corning Costar). […] Following the 60-minute incubation, the assay mixtures were quenched by the addition of 5 μL of Z′-LYTE™ development reagent, and 1 hour later the emissions of Coumarin (445 nm) and Fluorescein (520 nm) were determined after excitation at 400 nm using an Envision plate reader (Perkin Elmer).

CDKL3 = CDKL3 (Homo sapiens, UniProt Q8IVW4); assay: KINOMEscan; details: read-out: Percent Control
Sequence of CDKL3 (Q8IVW4 whole entry): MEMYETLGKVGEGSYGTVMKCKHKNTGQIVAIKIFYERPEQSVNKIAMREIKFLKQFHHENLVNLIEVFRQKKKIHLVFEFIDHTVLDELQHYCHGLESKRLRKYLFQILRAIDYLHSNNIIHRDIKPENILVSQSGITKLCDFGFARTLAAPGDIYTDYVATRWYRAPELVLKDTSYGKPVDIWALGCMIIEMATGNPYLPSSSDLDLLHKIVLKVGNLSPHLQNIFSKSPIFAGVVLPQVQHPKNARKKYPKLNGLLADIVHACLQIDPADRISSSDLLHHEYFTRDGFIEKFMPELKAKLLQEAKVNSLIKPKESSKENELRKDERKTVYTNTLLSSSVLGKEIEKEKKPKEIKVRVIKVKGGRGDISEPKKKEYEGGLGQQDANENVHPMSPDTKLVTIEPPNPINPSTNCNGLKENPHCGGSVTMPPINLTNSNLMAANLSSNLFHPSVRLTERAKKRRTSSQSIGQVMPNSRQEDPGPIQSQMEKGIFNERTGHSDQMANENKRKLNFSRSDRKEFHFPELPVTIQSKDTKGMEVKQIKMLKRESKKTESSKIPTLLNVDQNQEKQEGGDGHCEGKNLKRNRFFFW
Protocol: as §4

EGFR(G719C) = EGFR(G719C) (Homo sapiens, UniProt P00533, G719C); assay: KINOMEscan; details: read-out: Percent Control
Protocol: as §4

O=C1CCC(N2C(=O)c3cccc(NCCCCCCCCNC(=O)N4CC[C@H](NC5=Nc6cc(F)ccc6N(CC(F)F)c6ccc(Cl)cc65)C4)c3C2=O)C(=O)N1 (stereo partly drawn) [BJG-05-039, (3S)-3-((2-Chloro-5-(2,2-difluoroethyl)-8-fluoro-5H-dibenzo[b,e][1,4]diazepin-11-yl)amino)-N-(8-((2-(2,6-dioxopiperidin-3-yl)-1,3-dioxoisoindolin-4-yl)amino)octyl)pyrrolidine-1-carboxamide]
remaining binding at 10 µM [1]: 42%
remaining binding at 10 µM (MELK): 81%
remaining binding at 10 µM (STK35): 83%
remaining binding at 10 µM (AAK1): 48%
remaining binding at 10 µM (ULK3): 92%
remaining binding at 10 µM (S6K1): 89%
pEC50 (MCF7 cells; first statement of b311): 8.52
pEC50 (MCF7 cells; second listing of b311): 7.07
Effect on cell proliferation (OMM1 cells): Neither BJG-05-039 or NVS-PAK1-1 significantly affected cell proliferation
pEC50 (OMM1 cells; OMM-1, read-out: EC50, anti-proliferative): 4.68
Effect on cell proliferation (Hey A8 cells; HEY-A8 cells (PAK2-dependent)): Neither BJG-05-039 or NVS-PAK1-1 significantly affected cell proliferation
pEC50 (Hey A8 cells; Hey A8 cells (PAK2-dependent), read-out: EC50, anti-proliferative): 4.44
remaining binding at 10 µM (WNK2): 89%
remaining binding at 10 µM (MYLK2): 93%
remaining binding at 10 µM (CSNK1G2): 78%
remaining binding at 10 µM (PRP4): 97%
remaining binding at 10 µM (PFTK1): 88%
remaining binding at 10 µM [2]: 100%
remaining binding at 10 µM (TXK): 90%
remaining binding at 10 µM (CHEK2): 62%
pEC50 (OVCAR3 cells; first statement of b311): 8.08
pEC50 (OVCAR3 cells; second listing of b311): 6.99
remaining binding at 10 µM (GAK): 56%
remaining binding at 10 µM (FGR): 82%
remaining binding at 10 µM (KIT(L576P)): 84%
remaining binding at 10 µM (LZK): 82%
remaining binding at 10 µM (CLK1): 57%
remaining binding at 10 µM (PAK6): 99%
pIC50 (PAK1): 6.63
Increase of selectivity over PAK2 relative to NVS-PAK-1 (PAK1; from Table 1): more than ten-fold
PAK1 inhibitory activity and selectivity of conjugate (PAK1; vs PAK2 and PAK4): retained PAK1 inhibitory activity and selectivity
remaining binding at 10 µM (CDKL3): 98%
remaining binding at 10 µM (EGFR(G719C)): 83%
